How the values were obtained:
[1] = test system: AMPA receptors; test: AMPA-receptor activity: kainic acid-induced currents in Purkinje cells (patch-clamp); format: cell-based, rat; conditions: mean±SEM, control=100%
Method: The analysis of effects of the testing compounds on AMPA receptors was carried out using an electrophysiological patch-clamp method in whole cell configuration (Hamill et al., 1980) of the Purkinje cell fresh isolated from the cerebellum of juvenile rats (12-15 days). The isolation was carried out using a modified method (Kaneda et al., 1988) in which cerebral 400-600 μm sections were incubated for 60 min in the temperature controlled chamber in 10 mL of buffer solution (150 mM NaCl, 5 mM KCl, 2 mM CaCl2, 2 mM MgSO4.7H2O, 10 mM HEPES, 15 mM glucose, pH 7.42). The incubation solution was exchanged with the incubation buffer with pronase (2 mg/mL) and collagenase (1 mg/mL) for 70 min. After a 20 min wash with the original buffer, all sections were placed into the Petri dish and were separated using a Pasteur pipette. All solutions were constantly aerated with 100% O2 at 34° C. The composition of extracellular saline was: 150 mM NaCl, 5 mM KCl, 2.6 mM CaCl2, 2 mM MgSO4.7H2O, 10 mM HEPES, 15 mM glucose, pH 7.36. The transmembrane current was induced as a result of the activation of AMPA receptors by a superfusion with the agonist solution (kainic acid). The currents were measured using borosilicate microelectrodes (resistance […]) filled with 100 mM KCl, 11 mM EGTA, 1 mM CaCl2, 1 mM MgCl2, 10 mM HEPES, 5 mM ATP, pH 7.2. The currents were registered using EPC-9 (HEKA, Germany) and recorded with Pulse software package which was also purchased from HEKA. The analysis of observations was carried out using Pulsefit (HEKA, Germany) and the statistical significance was analyzed using a Student's T-test criteria. Data are presented as mean±SEM in % of control values.
Compounds of the invention were tested in 3-5 neurons. Every concentration of compound was repeated three-four times in every neuron. Data are presented as mean±SEM in % of Control values (Table 13+14, FIGS. 8-12). Control value=100%.

[2] = test system: rat brain mitochondria; test: Calcium retention capacity of mitochondria; format: biochemical, Wistar rats; conditions: at concentrations near the IC50
Method: Analyses of extramitochondrial Ca^2+ following a bolus dose of Ca^2+ were performed under energized conditions, in a sucrose based buffer (250 mM sucrose, 10 mM HEPES, 1 mM Pi (K), 1 mM MgCl2, 10 μM EGTA, pH 7.2) containing 5 mkM Arsenazo III, 1 μg/ml oligomycin and 20 μM ADP with 5 mM malate and glutamate as respiratory substrates in a cuvette in a Beckman DU 640 spectrophotometer.

[3] = test system: C57BL/6 mice; conditions: 0.01-0.1 mg/kg; previously shown; cited from earlier work
[4] = test system: mice; test: recognition test of new location of a known object (spatial memory); format: in vivo

Compound	kainic acid-induced currents in Purkinje cells, % of Control values ([1]; compound 3 × 10^−5 M) [%]	kainic acid-induced currents in Purkinje cells, % of Control values ([1]; compound 10^−5 M) [%]	kainic acid-induced currents in Purkinje cells, % of Control values ([1]; compound 10^−6 M) [%]	kainic acid-induced currents in Purkinje cells, % of Control values ([1]; compound 10^−7 M) [%]	kainic acid-induced currents in Purkinje cells, % of Control values ([1]; compound 10^−8 M) [%]	calcium-retention capacity of mitochondria [2]	effect on memory in the recognition test of a known object in a new location [3]	Influence on memory in the test recognition new localization of known object ([4]; Dose of Compound 0.05 mg/kg)	Influence on memory in the test recognition new localization of known object ([4]; Dose of Compound 0.1 mg/kg)	Influence on memory in the test recognition new localization of known object ([4]; Dose of Compound 0.5 mg/kg)	Influence on memory in the test recognition new localization of known object ([4]; Dose of Compound 1.0 mg/kg)
CN1CCc2c(c3cc(Cl)ccc3n2CCc2nc(-c3ccccc3)cs2)C1 [Compound C1-8]	90 ± 7	105 ± 8	123 ± 8	102 ± 3	100 ± 4	increased the calcium-retention capacity of mitochondria					
Cc1ccc2c(c1)c1c(n2CCc2ccc(C)nc2)CCN(C)C1 [Dimebon, dimebon, reference compound]							dose-dependent activating effect on memory	+	+	−	−

Source: patent publication US9096591B2, “Tetracyclic compounds” (Medivation Technologies, Inc., priority 2007, dated 2015)
